Structures can show the parent of a compound that is named as a salt.
Tests used:
[1] = test system: U87MG human glioblastoma Multiforme cell strain; test: Antitumor cell proliferation in vitro, CCK-8 detection kit, U87MG; format: cell-based; conditions: U-87 MG, 72 h, U-87MG cells, 1st and 2nd test where printed
Description: The half inhibitory concentration IC50 of proliferation of three kinds of tumor cell strain (U87MG, PC-3, BT474) for 12 candidate compounds of the present invention is detected by CCK-8 detection kits.
U87MG human glioblastoma Multiforme cell strain (cell bank of Chinese Academy of Sciences)
The studied compounds are dissolved by DMSO to make the final concentration 10 mM.
• a) Collecting the cells in logarithmic phase, counting, and resuspending the cells with complete medium. • b) Adjusting the concentration of cells to a suitable concentration, inoculating in 96 well plates, each well is inoculated to 100 μl cell suspension.
c) incubating cells for 24 hours in a 5% CO2 incubator at temperature of 37° C., under the condition of 100% relative humidity.
a) The cells in logarithmic phase is collected, counted, resuspended with complete medium. The concentration of cells is adjusted to a suitable concentration (determined in accordance with the optimizable test results of cell density), and the cells is inoculated in 96 well plates, wherein each well is inoculated 100 μl cell suspension, Cells are incubated for 24 hours in 5% CO2 incubator at temperature of 37° C. under the condition of 100% relative humidity.
b) The test compounds are diluted to 500 μM with culture medium, then diluted in series eight times. […] as 25 μl/well. The final concentrations of the compounds are diluted from 100 μM to 0 μM, with 4 times dilution, and there are a total of 10 concentration points.
c) Cells are incubated for 72 hours in 5% CO2 incubator at temperature of 37° C. under the condition of 100% relative humidity.
d) The culture medium is aspirated and discarded, and complete medium containing 10% CCK-8 is incubated in a incubator at 37° C. for 2˜4 hours.
e) After shocking gently, the absorbance of the culture medium is measured at 450 nm wavelength on SpectraMax M5 Microplate Reader, with the absorbance at 650 nm as reference, to calculate the inhibition rate.

[2] = target: T1, PDGFR β enzyme (Homo sapiens, UniProt P09619); test: Inhibitory activity to PDGFR β enzyme, HTRF kinEASE TK kit; format: biochemical
T1 construct: purchased Invitrogen P3082
T1 sequence (P09619 33-1106): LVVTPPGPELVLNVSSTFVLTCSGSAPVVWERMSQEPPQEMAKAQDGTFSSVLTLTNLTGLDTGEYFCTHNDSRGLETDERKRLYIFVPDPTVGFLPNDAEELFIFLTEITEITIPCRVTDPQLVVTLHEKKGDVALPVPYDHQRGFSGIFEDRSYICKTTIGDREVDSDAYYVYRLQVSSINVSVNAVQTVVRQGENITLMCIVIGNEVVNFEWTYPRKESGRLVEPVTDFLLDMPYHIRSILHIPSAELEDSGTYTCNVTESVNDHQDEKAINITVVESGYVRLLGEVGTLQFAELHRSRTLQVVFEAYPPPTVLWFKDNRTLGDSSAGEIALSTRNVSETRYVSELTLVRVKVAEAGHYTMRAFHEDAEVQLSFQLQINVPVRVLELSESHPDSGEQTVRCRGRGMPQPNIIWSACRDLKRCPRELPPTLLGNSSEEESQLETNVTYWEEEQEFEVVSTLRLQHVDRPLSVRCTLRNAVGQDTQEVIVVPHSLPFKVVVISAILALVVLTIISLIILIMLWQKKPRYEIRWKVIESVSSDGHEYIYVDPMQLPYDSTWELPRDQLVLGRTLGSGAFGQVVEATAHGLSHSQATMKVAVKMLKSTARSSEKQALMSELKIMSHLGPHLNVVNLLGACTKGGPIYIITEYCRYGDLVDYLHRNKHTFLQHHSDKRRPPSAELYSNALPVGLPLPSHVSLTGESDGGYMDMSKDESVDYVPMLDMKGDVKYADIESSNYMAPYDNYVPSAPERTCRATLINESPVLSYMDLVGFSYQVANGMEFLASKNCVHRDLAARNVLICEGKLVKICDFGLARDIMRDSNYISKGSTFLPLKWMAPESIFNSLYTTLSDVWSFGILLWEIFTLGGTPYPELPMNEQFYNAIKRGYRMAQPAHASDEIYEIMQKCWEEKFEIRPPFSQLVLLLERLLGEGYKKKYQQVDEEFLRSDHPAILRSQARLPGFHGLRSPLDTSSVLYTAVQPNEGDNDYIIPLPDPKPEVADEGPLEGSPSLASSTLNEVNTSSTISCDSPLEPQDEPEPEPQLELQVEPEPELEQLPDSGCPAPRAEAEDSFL
Outline: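 Recombinant human PDGFRβ phosphorylating TK-substrate in kinase buffer containing MgCl2, MnCl2, DTT and SEB, with ATP. Phosphorylation detected by HTRF using TK-Ab-Cryptate and Sa-XL665.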

[3] = test system: PC-3 cell Akt (Ser473) phosphorylation; test: Inhibition of phosphorylation level of PC-3 cell Akt (Ser473), Cisbio HTRF phospho Akt (Ser473) cell-based assay; parameters: species or system human; conditions: hEGF 100 ng/ml stimulation, 1st and 2nd test where printed
Description: The inhibitory activity of the compounds of present invention to the phosphorylation level of PC-3 cell Akt (Ser473) is studied by using Cisbio HTRF phospho Akt (Ser473) cell-based assay test kit.
Cell strain: PC-3 prostate cancer cells line (cell bank of Chinese Academy of Sciences) is cultured by using culture medium (F12K+10% FBS).
hEGF is prepared as stock solution of 100 ug/ml with 10 mM acetic acid, and the stock solution is diluted to 200 ng/ml with serum-free medium, added 50 ul to each well to be stimulated.
b) Preparation of Complete Lysate • 4×Lysis Buffer is diluted 4 times with ddH2O to prepare 1×Lysis Buffer. • 100×Blocking Reagent is diluted 100 times with 1×Lysis Buffer.
c) Preparation of Detection Liquid • 20×Anti-Phospho-Akt is diluted 20 times with Detection Buffer. • 20×Anti-Akt is diluted 20 times with Detection Buffer.
The compounds are diluted with DMSO, and the working concentration of compounds is 100 times of detection concentration.
Cells in logarithmic growth phase are collected, counted, and resuspended with complete culture medium;
The cell concentration is adjusted to appropriate concentration, and cell suspension is inoculated into 96 well plates at 50 μl per well;
Cells are incubated for more than 4 h in the 5% CO2 incubator at temperature of 37° C., relative humidity of 100%;
Cell plate is removed from the incubator. The cell suspension is aspirated gently, and 50 ul serum-free F12K medium is quickly added, then the cell plate is placed into the incubator to culture overnight.
The compounds are diluted in a linear gradient with DMSO.
0.5 ul compounds is added into the test well, mixed on oscillators, and incubated at room temperature for 2 hours.
Proportioned hEGF solution is added to test well at 50 μl per well, and the final concentration is 100 ng/ml. serum-free medium is added into The negative control well at 50 μl per well.
The solution is mixed on oscillator and incubated at room temperature for 2 hours.
The liquid in 96 well plates is aspirated by multichannel pipette or the supernatant is discarded gently. The proportioned complete lysate is added quickly at 50 μl per well.
The solution is mixed on oscillator and lysed at room temperature for 30 min.
16 μl cell lysate is transferred from the 96 well plates to white low volume 384 well plates, and the proportioned two pairs of detection antibody are added. The solution is mixed on oscillator, and incubated at room temperature for 4 hours to detect the readings.

c1ccc(-c2ccnc3ccc(Nc4nc(NC5CC5)c5nc[nH]c5n4)cc23)cc1 [MED1007-91, N6-cyclopropyl-N2-(4-phenylquinoline-6-yl)-9H-purine-2,6-diammonium salt dihydrate di-methanesulfonate]
IC50 [1]: 8.15 µM
Inhibition rate % (PDGFR β) ([2]; 1 μM, dihydrate di-methanesulfonate): −10.96%
inhibition at 10 µM ([2]; 10 μM, read-out: Inhibition rate % (PDGFR β)): 13.8%
IC50 ([3]; PC-3 cells, dihydrate di-methanesulfonate): 74 nM

COC[C@H]1OC(=O)c2coc3c2[C@@]1(C)C1=C(C3=O)[C@@H]2CCC(=O)[C@@]2(C)C[C@H]1OC(C)=O [Wortmannin, reference compound]
IC50 ([3]; Homo sapiens, PC-3, PC-3 cells): 7.41 nM

From patent publication US9718823B2, “2, 6-Di-nitrogen-containing substituted purine derivative, and preparation method, pharmaceutical composition and use thereof” (Zhejiang Medicine Co., Ltd. Xinchang Pharmaceutical Factory, priority 2013, dated 2017)
